In patent publication US20100028366A1, “SYNERGISTIC EFFECT BETWEEN A […] AND ANOTHER OXIDATIVE INDUCING SYSTEM FOR TREATING TUMORS” (priority 2005, published 2010):

Test system: W&Wlis cells
Experiment: Cell viability analysis by MTT
Format: cell-based, canine
Protocol: The mitochondrial enzymatic activity as indicative of cell viability was determined by means of using tetrazolium salts. In this assay 10^5 cells/test tube (culture test tubes with a flat side and screw-on cap to prevent the exit of HCN; Nunc) or 10^4 cells/well of 24-well plates closed with parafilm were seeded. After 24 hours of incubation fresh culture medium supplemented with the concentrations of linamarin (between 50 and 500 μg/ml) and glucose oxidase (5 mEU/ml) necessary for each experiment was added. In the assays in which it applied, the medium was supplemented with N-acetyl cysteine (10 mM), 1,5-isoquinolinediol (300 μM) or Z-VAD-fmk (100 μM). After the time stipulated in each experiment (between 12 and 96 hours), the culture medium was removed and fresh medium with 200 μg/mL of MTT (3-[4,5-dimethylthiazo-2-yl]-2,5-diphenyl tetrazolium bromide) was added. After 1.5 hours of incubation, the medium was removed and 3 ml (for the test tubes) or 1 ml (for the 24-well plates) of dimethyl sulfoxide was added to dissolve the formazan. After 10 minutes, the absorbance of the samples at 540 nm was determined. MTT is a tetrazolium salt soluble in aqueous medium (yellow) which is transformed by the mitochondrial dehydrogenases in formazan, an insoluble compound in aqueous medium (purple).

CC(C)(C#N)O[C@@H]1O[C@H](CO)[C@@H](O)[C@H](O)[C@H]1O [lin, 2-hydroxy-isobutyronitrile-β-D-glucopyranoside]
effect of NAC addition on death in the cell viability assay by MTT (10 mM N-acetyl cysteine (NAC) in the medium): did not cause any effect | cell survival by MTT (96 hours, linamarin 200 to 500 μg/ml, without GO): drastic reduction of the survival | time after which cell viability begins to decrease (MTT) (linamarin alone, or combined therapy at 500 μg/ml linamarin with 5 mEU/ml glucose oxidase): 48 h
